Source: patent publication US8791132B2, “Compounds and methods for treatment of hypertension” (Medivation Technologies, Inc., priority 2011, dated 2014)
“And” between values parts separate entries of the source, which are not always exact repeats. Equal entries are not always repeated.

Key:
[1] = biological target: T1, human recombinant adrenergic α2B receptor (Homo sapiens, UniProt P18089); assay: Radioligand binding, adrenergic α2B ([3H]Rauwolscine); details: for Ki: read-out: Ki α2B
T1 construct: expressed in transfected cells; host or cells: CHO-K1
T1 sequence (P18089 1-450): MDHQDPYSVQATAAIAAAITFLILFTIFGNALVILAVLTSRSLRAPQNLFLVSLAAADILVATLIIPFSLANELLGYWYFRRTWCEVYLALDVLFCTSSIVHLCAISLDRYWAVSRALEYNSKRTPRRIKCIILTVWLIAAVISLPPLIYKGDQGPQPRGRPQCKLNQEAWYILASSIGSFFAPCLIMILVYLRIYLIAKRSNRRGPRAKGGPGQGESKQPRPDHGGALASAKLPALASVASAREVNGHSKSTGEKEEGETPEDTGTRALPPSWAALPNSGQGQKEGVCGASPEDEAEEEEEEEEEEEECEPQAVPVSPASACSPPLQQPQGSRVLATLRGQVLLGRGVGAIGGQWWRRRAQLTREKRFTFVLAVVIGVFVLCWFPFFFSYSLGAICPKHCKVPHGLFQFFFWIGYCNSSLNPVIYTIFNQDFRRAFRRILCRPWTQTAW
Summary of the method: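 Receptor expressed in CHO-K1 cells, assayed in 50 mM Tris-HCl pH 7.4 with 12.5 mM MgCl2, 1 mM EDTA and 0.2% BSA. Compounds were incubated with 2.5 nM [3H]Rauwolscine for 60 min at 25° C; 10 μM Prazosin defined non-specific binding. Filter counting gave percent inhibition of specific binding.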

[2] = biological target: T2, human recombinant adrenergic α2A receptor (Homo sapiens, UniProt P08913); assay: Radioligand binding, adrenergic α2A ([3H]MK-912)
T2 construct: expressed in transfected cells; host or cells: insect Sf9 cells
T2 sequence (P08913 1-465): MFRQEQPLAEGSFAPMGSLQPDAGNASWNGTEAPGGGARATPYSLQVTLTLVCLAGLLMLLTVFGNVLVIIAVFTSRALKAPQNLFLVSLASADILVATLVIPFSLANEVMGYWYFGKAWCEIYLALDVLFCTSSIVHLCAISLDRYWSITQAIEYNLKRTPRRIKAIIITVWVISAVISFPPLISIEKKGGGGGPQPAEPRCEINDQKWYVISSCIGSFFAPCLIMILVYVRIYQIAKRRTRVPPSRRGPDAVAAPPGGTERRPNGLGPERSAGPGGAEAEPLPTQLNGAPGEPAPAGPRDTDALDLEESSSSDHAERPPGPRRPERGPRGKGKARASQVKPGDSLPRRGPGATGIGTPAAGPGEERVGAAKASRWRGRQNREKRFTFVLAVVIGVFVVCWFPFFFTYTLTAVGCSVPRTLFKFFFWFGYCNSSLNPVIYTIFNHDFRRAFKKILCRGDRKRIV
Summary of the method: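 Displacement of 1 nM [3H]MK-912 from receptor produced in insect Sf9 cells was measured after 60 min at 25 °C. Readout: percent inhibition of specific binding.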

[3] = biological target: T3, rat adrenergic α1B receptor (Rattus norvegicus, UniProt P15823); assay: Radioligand binding, adrenergic α1B ([3H]Prazosin)
T3 construct: rat adrenergic α1B receptor obtained from Wistar Rat liver; from tissue; host or cells: Wistar rat liver
T3 sequence (P15823 1-515): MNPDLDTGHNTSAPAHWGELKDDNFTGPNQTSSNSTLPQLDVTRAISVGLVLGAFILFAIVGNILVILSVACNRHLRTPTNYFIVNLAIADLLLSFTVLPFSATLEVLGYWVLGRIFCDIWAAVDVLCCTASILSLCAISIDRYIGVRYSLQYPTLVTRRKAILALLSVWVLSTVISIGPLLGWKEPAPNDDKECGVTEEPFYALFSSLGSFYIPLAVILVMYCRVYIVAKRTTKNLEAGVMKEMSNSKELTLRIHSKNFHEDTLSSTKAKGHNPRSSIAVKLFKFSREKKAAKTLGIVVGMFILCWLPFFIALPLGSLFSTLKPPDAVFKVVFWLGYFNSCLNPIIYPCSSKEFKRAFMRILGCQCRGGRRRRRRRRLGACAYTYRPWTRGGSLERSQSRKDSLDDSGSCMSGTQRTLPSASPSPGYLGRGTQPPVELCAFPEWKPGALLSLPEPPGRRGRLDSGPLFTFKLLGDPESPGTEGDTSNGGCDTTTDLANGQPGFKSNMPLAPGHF
Summary of the method: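 Rat α1B receptor from Wistar rat liver was incubated with 0.25 nM [3H]prazosin for 60 min at 25 °C in 50 mM Tris-HCl, pH 7.4, 0.5 mM EDTA. Non-specific binding was defined with 10 μM phentolamine. Bound radioligand was measured by filtration and counting, reported as percent inhibition of specific binding.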

[4] = compound at 0.03 μM, [3H]Rauwolscine, repeat assays, each datapoint shown, 0.03 µM
[5] = compound at 0.1 μM, [3H]Rauwolscine, repeat assays, each datapoint shown, 0.1 µM
[6] = compound at 0.03 μM, [3H]Prazosin, repeat assays, each datapoint shown, read-out: Percentage inhibition of ligand binding, Adrenergic α1B

| Percentage inhibition of ligand binding, Adrenergic α2B [1, 4] | Percentage inhibition of ligand binding, Adrenergic α2B [1, 5] | Ki [1] | Ki [2] | Percentage inhibition of ligand binding, Adrenergic α2A ([2]; compound at 0.1 μM, [3H]MK-912, repeat assays, each datapoint shown, 0.1 µM) | Ki [3] | Percentage inhibition of ligand binding, Adrenergic α1B ([3]; compound at 0.03 μM, [3H]Prazosin, repeat assays, each datapoint shown, 0.03 µM) | inhibition at 0.03 µM [3, 6] | Percentage inhibition of ligand binding, Adrenergic α1B ([3]; compound at 0.1 μM, [3H]Prazosin, repeat assays, each datapoint shown, 0.1 µM) | inhibition at 0.03 µM ([1]; compound at 0.03 μM, [3H]Rauwolscine, repeat assays, each datapoint shown, read-out: Percentage inhibition of ligand binding, Adrenergic α2B) | inhibition at 0.1 µM ([1]; compound at 0.1 μM, [3H]Rauwolscine, repeat assays, each datapoint shown, read-out: Percentage inhibition of ligand binding, Adrenergic α2B) | inhibition at 0.1 µM ([2]; compound at 0.1 μM, [3H]MK-912, repeat assays, each datapoint shown, read-out: Percentage inhibition of ligand binding, Adrenergic α2A) | inhibition at 0.1 µM ([3]; compound at 0.1 μM, [3H]Prazosin, repeat assays, each datapoint shown, read-out: Percentage inhibition of ligand binding, Adrenergic α1B) | SMILES |
| --- | --- | --- | --- | --- | --- | --- | --- | --- | --- | --- | --- | --- | --- |
| 81% and 86% and 90% and 100% | 82% and 100% and 107% | 0.95 nM and 1.06 nM and 4.53 nM | 152 nM and 192 nM and 195 nM | 18% and 21% and 22% | 184 nM | 11% and 15% | 10% | 23% and 30% and 33% |  |  |  |  | Cc1ccc2c(c1)c1c(n2CC(C)(O)c2cccnc2)CCN(C)C1 (single isomer, unassigned) [5b, 1-(1,2,3,4-tetrahydro-2,8-dimethylpyrido[4,3-b]indol-5-yl)-2-(pyridin-3-yl)propan-2-ol] |
| 80% | 94% | 5.89 nM |  |  |  |  | 28% |  | 65% | 85% | 30% | 60% | Cc1ccc2c(c1)c1c(n2CCc2cccnc2)CCN(C)C1 [compound 61] |
